# Key:
# Test in all cases: KINOMEscan competition binding
# BMX (human) = BMX (human) (UniProt P51813); settings: compound 10.0 µM
# EPHA5 (human) = EPHA5 (human) (UniProt P54756); settings: compound 10.0 µM
# ERN1 (human) = ERN1 (human) (UniProt O75460); settings: compound 10.0 µM
# [1] = system: EGFR (human), P00533 [747-751 del / S ins]; settings: compound 10.0 µM
# MAPK10 (human) = MAPK10 (human) (UniProt P53779); settings: compound 10.0 µM
# PI4KB (human) = PI4KB (human) (UniProt Q9UBF8); settings: compound 10.0 µM
# RPS6KA5 KD2 (human) = RPS6KA5 KD2 (human) (UniProt O75582); settings: compound 10.0 µM
# TEK (human) = TEK (human) (UniProt Q02763); settings: compound 10.0 µM
# MAPK12 (human) = MAPK12 (human) (UniProt P53778); settings: compound 10.0 µM
# ADCK4 (human) = ADCK4 (human) (UniProt Q96D53); settings: compound 10.0 µM
# DCLK2 (human) = DCLK2 (human) (UniProt Q8N568)
# STK17B (human) = STK17B (human) (UniProt O94768); settings: compound 10.0 µM
# NTRK2 (human) = NTRK2 (human) (UniProt Q16620); settings: compound 10.0 µM
# STK32A (human) = STK32A (human) (UniProt Q8WU08); settings: compound 10.0 µM
# HIPK4 (human) = HIPK4 (human) (UniProt Q8NE63); settings: compound 10.0 µM
# CAMK1G (human) = CAMK1G (human) (UniProt Q96NX5); settings: compound 10.0 µM
# MAP2K6 (human) = MAP2K6 (human) (UniProt P52564); settings: compound 10.0 µM
# [2] = system: PIK3CA (human), P42336 [E545A]; settings: compound 10.0 µM
# TNK2 (human) = TNK2 (human) (UniProt Q07912); settings: compound 10.0 µM
# TSSK1B (human) = TSSK1B (human) (UniProt Q9BXA7); settings: compound 10.0 µM
# ZAP70 (human) = ZAP70 (human) (UniProt P43403); settings: compound 10.0 µM
# SIK3 (human) = SIK3 (human) (UniProt Q9Y2K2); settings: compound 10.0 µM
# CSNK1A1L (human) = CSNK1A1L (human) (UniProt Q8N752); settings: compound 10.0 µM
# RIOK3 (human) = RIOK3 (human) (UniProt O14730); settings: compound 10.0 µM
# AKT1 (human) = AKT1 (human) (UniProt P31749); settings: compound 10.0 µM
# [3] = system: FLT3 (human), P36888 [R834Q]; settings: compound 10.0 µM
# CDK8 (human) = CDK8 (human) (UniProt P49336); settings: compound 10.0 µM
# ULK2 (human) = ULK2 (human) (UniProt Q8IYT8); settings: compound 10.0 µM
# [4] = system: PIK3CA (human), P42336 [H1047Y]; settings: compound 10.0 µM
# MAPK15 (human) = MAPK15 (human) (UniProt Q8TD08); settings: compound 10.0 µM
# [5] = system: RET (human), P07949 [M918T]; settings: compound 10.0 µM
# CDK9 (human) = CDK9 (human) (UniProt P50750); settings: compound 10.0 µM
# [6] = system: EGFR (human), P00533 [746-750 del]; settings: compound 10.0 µM
# MAPK3 (human) = MAPK3 (human) (UniProt P27361); settings: compound 10.0 µM
# CLK4 (human) = CLK4 (human) (UniProt Q9HAZ1); settings: compound 10.0 µM
# PIP4K2C (human) = PIP4K2C (human) (UniProt Q8TBX8); settings: compound 10.0 µM
# TYRO3 (human) = TYRO3 (human) (UniProt Q06418); settings: compound 10.0 µM
# [7] = system: FLT3 (human), P36888 [D835Y]; settings: compound 10.0 µM
# FLT4 (human) = FLT4 (human) (UniProt P35916); settings: compound 10.0 µM
# DAPK2 (human) = DAPK2 (human) (UniProt Q9UIK4); settings: compound 10.0 µM
# MYLK4 (human) = MYLK4 (human) (UniProt Q86YV6); settings: compound 10.0 µM
# Chain of DCLK2 (human) (Q8N568 whole entry, looked up): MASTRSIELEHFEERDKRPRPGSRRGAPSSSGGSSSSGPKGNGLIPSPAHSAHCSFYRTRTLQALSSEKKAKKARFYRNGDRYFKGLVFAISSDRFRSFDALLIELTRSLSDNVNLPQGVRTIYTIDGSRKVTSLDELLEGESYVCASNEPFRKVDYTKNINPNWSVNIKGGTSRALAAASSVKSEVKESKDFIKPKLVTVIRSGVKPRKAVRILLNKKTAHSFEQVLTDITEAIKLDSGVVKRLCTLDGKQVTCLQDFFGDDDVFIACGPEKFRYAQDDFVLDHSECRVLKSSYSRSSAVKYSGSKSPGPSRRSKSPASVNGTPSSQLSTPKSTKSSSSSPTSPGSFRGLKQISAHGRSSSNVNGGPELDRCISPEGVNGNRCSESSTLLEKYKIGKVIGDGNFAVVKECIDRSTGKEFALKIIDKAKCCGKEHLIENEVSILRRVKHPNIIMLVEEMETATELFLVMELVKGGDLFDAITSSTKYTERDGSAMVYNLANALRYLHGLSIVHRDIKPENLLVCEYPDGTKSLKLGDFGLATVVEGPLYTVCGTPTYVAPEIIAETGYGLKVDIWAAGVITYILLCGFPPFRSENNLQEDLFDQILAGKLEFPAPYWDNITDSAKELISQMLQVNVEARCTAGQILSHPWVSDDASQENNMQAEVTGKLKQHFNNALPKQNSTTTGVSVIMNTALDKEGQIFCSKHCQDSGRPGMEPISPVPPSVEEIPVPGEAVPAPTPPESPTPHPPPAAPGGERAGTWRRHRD
# Chain of TEK (human) (Q02763 whole entry, looked up): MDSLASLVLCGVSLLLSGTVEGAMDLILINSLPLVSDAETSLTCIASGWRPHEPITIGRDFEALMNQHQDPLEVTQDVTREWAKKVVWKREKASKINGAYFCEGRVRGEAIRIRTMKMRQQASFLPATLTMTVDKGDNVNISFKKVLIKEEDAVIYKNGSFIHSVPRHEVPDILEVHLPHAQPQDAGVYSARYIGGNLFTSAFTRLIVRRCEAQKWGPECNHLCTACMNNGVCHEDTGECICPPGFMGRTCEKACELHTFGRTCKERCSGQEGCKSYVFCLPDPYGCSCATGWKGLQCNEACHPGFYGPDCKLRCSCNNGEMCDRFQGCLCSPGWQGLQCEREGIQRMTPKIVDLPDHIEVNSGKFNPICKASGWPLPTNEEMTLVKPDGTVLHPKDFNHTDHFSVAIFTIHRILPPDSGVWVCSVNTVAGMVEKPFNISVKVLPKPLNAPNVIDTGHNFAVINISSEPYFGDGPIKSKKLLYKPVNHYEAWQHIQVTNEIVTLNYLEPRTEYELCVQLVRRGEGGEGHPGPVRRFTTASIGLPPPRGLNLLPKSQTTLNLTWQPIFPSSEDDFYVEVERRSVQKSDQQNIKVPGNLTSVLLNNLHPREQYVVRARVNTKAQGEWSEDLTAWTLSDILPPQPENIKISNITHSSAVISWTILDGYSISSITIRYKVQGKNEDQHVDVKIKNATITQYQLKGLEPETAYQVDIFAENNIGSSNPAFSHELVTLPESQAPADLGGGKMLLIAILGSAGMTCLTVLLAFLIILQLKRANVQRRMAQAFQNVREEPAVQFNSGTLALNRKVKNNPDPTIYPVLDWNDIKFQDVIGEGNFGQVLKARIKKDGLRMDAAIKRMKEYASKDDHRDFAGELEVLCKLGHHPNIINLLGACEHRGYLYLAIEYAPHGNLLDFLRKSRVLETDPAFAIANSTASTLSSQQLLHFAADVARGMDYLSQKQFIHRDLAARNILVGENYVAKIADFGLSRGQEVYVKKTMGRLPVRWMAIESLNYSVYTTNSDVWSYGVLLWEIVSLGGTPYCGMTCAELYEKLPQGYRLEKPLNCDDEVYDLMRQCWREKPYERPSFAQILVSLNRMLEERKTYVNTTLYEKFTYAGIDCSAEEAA
# Chain of RPS6KA5 KD2 (human) (O75582 whole entry, looked up): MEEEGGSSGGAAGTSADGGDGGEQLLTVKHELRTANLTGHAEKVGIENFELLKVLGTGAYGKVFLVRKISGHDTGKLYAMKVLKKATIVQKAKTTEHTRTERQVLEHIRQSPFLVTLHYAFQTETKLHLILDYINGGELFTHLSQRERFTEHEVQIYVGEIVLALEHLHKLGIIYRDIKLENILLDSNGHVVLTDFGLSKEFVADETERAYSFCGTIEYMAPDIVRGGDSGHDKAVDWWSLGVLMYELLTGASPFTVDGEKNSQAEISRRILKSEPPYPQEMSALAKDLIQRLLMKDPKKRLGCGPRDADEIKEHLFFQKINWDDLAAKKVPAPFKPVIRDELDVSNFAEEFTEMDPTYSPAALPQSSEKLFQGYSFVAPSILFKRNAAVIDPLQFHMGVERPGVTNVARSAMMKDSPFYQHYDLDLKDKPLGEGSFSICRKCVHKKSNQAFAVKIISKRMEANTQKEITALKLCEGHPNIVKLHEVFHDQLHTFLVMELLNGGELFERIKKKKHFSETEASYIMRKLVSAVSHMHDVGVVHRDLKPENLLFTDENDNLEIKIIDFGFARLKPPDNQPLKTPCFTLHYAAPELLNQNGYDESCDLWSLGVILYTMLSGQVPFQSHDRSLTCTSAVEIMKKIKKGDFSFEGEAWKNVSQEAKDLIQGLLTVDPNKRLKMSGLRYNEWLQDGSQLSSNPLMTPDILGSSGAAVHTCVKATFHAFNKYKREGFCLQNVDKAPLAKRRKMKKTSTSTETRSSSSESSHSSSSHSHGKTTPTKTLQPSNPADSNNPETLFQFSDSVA
# Chain of CSNK1A1L (human) (Q8N752 whole entry, looked up): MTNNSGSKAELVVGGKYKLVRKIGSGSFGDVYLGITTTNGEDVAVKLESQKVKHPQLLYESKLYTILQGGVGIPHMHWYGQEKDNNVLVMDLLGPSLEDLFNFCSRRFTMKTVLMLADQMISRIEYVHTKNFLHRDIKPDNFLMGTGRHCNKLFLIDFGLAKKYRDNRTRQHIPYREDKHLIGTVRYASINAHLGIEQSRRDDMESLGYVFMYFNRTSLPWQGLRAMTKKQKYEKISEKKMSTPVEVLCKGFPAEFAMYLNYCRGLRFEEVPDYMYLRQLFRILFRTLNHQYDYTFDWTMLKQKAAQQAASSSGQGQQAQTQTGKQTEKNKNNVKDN
# Chain of RIOK3 (human) (O14730 whole entry, looked up): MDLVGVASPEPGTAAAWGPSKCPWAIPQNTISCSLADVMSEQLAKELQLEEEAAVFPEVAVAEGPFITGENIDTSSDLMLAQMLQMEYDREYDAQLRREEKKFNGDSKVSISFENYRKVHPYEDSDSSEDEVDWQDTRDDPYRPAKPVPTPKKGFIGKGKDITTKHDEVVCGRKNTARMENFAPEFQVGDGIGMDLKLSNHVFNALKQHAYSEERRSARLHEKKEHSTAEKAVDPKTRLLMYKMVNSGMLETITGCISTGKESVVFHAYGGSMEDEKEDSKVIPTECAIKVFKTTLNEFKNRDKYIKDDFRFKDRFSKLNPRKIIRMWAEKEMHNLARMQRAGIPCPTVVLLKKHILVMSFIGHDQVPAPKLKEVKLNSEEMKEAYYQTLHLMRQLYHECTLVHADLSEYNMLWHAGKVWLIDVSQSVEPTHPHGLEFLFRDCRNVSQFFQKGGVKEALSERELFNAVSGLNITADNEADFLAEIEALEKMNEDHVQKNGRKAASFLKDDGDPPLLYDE
# Chain of TYRO3 (human) (Q06418 whole entry, looked up): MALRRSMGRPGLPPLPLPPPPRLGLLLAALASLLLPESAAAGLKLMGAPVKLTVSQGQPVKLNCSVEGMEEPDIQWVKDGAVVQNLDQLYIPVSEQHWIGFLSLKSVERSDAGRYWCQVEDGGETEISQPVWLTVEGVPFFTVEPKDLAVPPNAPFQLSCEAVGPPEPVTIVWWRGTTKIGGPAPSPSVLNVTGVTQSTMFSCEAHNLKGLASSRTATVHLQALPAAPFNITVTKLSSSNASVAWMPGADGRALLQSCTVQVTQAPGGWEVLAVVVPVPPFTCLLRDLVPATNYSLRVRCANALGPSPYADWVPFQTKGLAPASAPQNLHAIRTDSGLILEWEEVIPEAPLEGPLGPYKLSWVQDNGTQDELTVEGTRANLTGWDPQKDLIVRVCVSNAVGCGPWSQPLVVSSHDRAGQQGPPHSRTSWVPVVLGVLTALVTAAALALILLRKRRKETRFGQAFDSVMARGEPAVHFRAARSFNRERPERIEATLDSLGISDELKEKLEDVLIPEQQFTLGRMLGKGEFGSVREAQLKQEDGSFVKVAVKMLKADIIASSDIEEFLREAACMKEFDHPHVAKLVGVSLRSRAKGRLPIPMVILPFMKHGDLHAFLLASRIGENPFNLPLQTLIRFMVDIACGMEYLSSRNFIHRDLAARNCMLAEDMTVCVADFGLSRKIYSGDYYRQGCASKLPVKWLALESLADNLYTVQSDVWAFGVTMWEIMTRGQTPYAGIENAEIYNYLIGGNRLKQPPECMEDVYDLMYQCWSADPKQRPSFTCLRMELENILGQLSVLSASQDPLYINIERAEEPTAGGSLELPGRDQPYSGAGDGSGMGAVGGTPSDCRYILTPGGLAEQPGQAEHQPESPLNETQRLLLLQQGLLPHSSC
# Chain of ADCK4 (human) (Q96D53 whole entry, looked up): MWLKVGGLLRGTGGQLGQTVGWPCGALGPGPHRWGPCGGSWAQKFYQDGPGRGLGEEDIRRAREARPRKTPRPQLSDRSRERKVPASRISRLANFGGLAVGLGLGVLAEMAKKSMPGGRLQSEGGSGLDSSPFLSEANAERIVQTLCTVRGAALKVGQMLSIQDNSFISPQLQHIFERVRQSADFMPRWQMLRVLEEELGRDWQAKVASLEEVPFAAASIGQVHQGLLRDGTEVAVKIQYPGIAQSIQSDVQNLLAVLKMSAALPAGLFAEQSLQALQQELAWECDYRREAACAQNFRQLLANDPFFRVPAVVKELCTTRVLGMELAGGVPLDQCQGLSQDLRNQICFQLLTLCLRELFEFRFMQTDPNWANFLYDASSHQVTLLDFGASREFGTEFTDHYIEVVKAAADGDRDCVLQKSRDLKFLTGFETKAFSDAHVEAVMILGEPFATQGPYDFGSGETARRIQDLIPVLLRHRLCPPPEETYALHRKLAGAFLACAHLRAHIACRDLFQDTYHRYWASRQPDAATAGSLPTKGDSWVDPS
compound,measurement,setting,value
COc1cc(C(=O)N2CCC(N3CCN(C)CC3)CC2)ccc1Nc1ncc2c(n1)N(C)c1ccccc1C(=O)N2C,"kinase still bound, per cent of control",BMX (human),87%
same,"kinase still bound, per cent of control",EPHA5 (human),95%
same,"kinase still bound, per cent of control",ERN1 (human),59%
same,"kinase still bound, per cent of control",[1],100%
same,"kinase still bound, per cent of control",MAPK10 (human),77%
same,"kinase still bound, per cent of control",PI4KB (human),95%
same,"kinase still bound, per cent of control",RPS6KA5 KD2 (human),92%
same,"kinase still bound, per cent of control",TEK (human),100%
same,"kinase still bound, per cent of control",MAPK12 (human),76%
same,"kinase still bound, per cent of control",ADCK4 (human),94%
same,Kd,DCLK2 (human),0.016 µM
same,"kinase still bound, per cent of control",DCLK2 (human); compound 10.0 µM,0.45%
same,"kinase still bound, per cent of control",STK17B (human),93%
same,"kinase still bound, per cent of control",NTRK2 (human),100%
same,"kinase still bound, per cent of control",STK32A (human),100%
same,"kinase still bound, per cent of control",HIPK4 (human),100%
same,"kinase still bound, per cent of control",CAMK1G (human),74%
same,"kinase still bound, per cent of control",MAP2K6 (human),83%
same,"kinase still bound, per cent of control",[2],98%
same,"kinase still bound, per cent of control",TNK2 (human),18%
same,"kinase still bound, per cent of control",TSSK1B (human),60%
same,"kinase still bound, per cent of control",ZAP70 (human),79%
same,"kinase still bound, per cent of control",SIK3 (human),100%
same,"kinase still bound, per cent of control",CSNK1A1L (human),100%
same,"kinase still bound, per cent of control",RIOK3 (human),85%
same,"kinase still bound, per cent of control",AKT1 (human),79%
same,"kinase still bound, per cent of control",[3],100%
same,residual activity,CDK8 (human),100%
same,"kinase still bound, per cent of control",ULK2 (human),67%
same,"kinase still bound, per cent of control",[4],71%
same,"kinase still bound, per cent of control",MAPK15 (human),100%
same,"kinase still bound, per cent of control",[5],100%
same,residual activity,CDK9 (human),100%
same,"kinase still bound, per cent of control",[6],72%
same,"kinase still bound, per cent of control",MAPK3 (human),100%
same,"kinase still bound, per cent of control",CLK4 (human),54%
same,"kinase still bound, per cent of control",PIP4K2C (human),40%
same,"kinase still bound, per cent of control",TYRO3 (human),100%
same,"kinase still bound, per cent of control",[7],100%
same,"kinase still bound, per cent of control",FLT4 (human),100%
same,"kinase still bound, per cent of control",DAPK2 (human),67%
same,"kinase still bound, per cent of control",MYLK4 (human),80%
